Measured values: patent publication US20110263423A1, “Plant Health Composition” (BASF SE, priority 2008, published 2011)

System: Maize (Pioneer 34-N-45)
Assay: Maize field trial, mixture with epoxiconazol, Colby synergism (Example 6)
Type: in vivo
Details: 50 g a.i./ha of each compound
Experimental: Maize was grown in 2008 in a field trial at the BASF experimental station in Dinuba, 10181 Avenue 416, Calif., U.S.A. The variety Pioneer 34-N-45 was planted at a seeding rate of 35.000 plants/ha. The trial was setup as a randomized bloc design with 5 replications, each. Plot size was 43 m^2.
The maize plants were either untreted, treated with epoxiconazol (A3), with compound Ia, and with a mixture comprising compound Ia and epoxiconazol. Epoxiconazol was applied as the commercial formulation OPUS™ (125 g a.i./L, SC formulation) at a dose rate of 0.4 L/ha (50 g a.i./ha). Compound Ia was used as an EC formulation (62.5 g a.i./L) with a dose rate of 0.8 L per hectar (50 g a.i./ha). Epoxiconazol was applied together with compound Ia (as a mixture) using a co-formulation of both compounds (EC formulation, 62.5 g a.i./L each) with a product rate of 0.8 L/ha. The formulation was applied in a total spray volume of 300 L/ha. Compound Ia was sprayed at growth stage 51/55 (BBCH) with a tractor mounted spray boom with VS11003 spray nozzles at 3 bar spray pressure.
No disease symptoms were visible at the application time and no symptoms were detected at later stages.
At maturity the grain was harvested and the grain yield per plot, as an indicator of plant yield, was determined (kg/plot). Finally, the grain yield per hectare was calculated (dt/ha).
The efficacy was calculated as % increase of the grain yield (dt/ha) by each treatment compared to the untreated control.
The expected efficacies of the combinations of the active compounds were estimated using Colby's formula (Colby, S. R., Calculating synergistic and antagonistic responses of herbicide combinations, Weeds, 15, pp. 20-22, 1967) and compared with the observed efficacies.
E=x+y−x·y/100 Colby's formula: • E expected efficacy, expressed in % of the untreated control, when using the mixture of the active compounds A and B at the concentrations a and b • x efficacy, expressed in % of the untreated control, when using the active ingredient A at the concentration a • y efficacy, expressed in % of the untreated control, when using the active ingredient B at the concentration b

With `Fc1ccc([C@]2(Cn3cncn3)O[C@H]2c2ccccc2Cl)cc1` (racemic) [Epoxiconazol (A3), epoxiconazole, reference compound] the “Observed efficacy (% increase of grain yield vs untreated control)” value was 0.9% and the Grain yield (BBCH 51/55) was 155.8 dt/ha.
